This note sets out measurements from US7750028B2, “Crystal modifications of 1-(2,6-difluorobenzyl)-1H-1, 2,3-triazole-4-carboxamide” (Novartis AG, priority 1997, dated 2010).

Each structure is given as a SMILES string.

What all share (format): physicochemical
A short description of data set [1]: dissolution rate in water. Particulars: comparison between modifications.
Data set [2] in a line: thermodynamic investigations (thermomicroscopy, X-ray powder diffractometry, DSC, solubility tests) of crystal modifications. Particulars: for thermodynamic stability: comparison of the crystal modifications A/A′, B and C. An excerpt: The modification A or A′ has significant advantages compared with the modification B and compared with the modification C.
A short description of data set [3]: dissolution rate in gastric fluid. As to conditions: comparison between modifications.

`NC(=O)c1cn(Cc2c(F)cccc2F)nn1` [modification A, 1-(2,6-difluorobenzyl)-1H-1,2,3-triazole-4-carboxamide]: the dissolution rate entry in data set [1] and in data set [3] was “slower dissolution rate” in each case. In addition, the thermodynamic stability entry in data set [2] was “substantially better thermodynamic stability than the modifications B and C”.

For the compound `NC(=O)c1cn(Cc2c(F)cccc2F)nn1` [modification A′, 1-(2,6-difluorobenzyl)-1H-1,2,3-triazole-4-carboxamide], the dissolution rate result in data set [1] and in data set [3] was “slower dissolution rate” each time. The thermodynamic stability result in data set [2] (listed as A′) was “substantially better thermodynamic stability than the modifications B and C”.

For `NC(=O)c1cn(Cc2c(F)cccc2F)nn1` [modification B, 1-(2,6-difluorobenzyl)-1H-1,2,3-triazole-4-carboxamide], the dissolution rate entry in data set [1] and in data set [3] was “substantially faster dissolution rate” throughout.

For `NC(=O)c1cn(Cc2c(F)cccc2F)nn1` [modification C, 1-(2,6-difluorobenzyl)-1H-1,2,3-triazole-4-carboxamide], the “conversion of the crystals into modification B” value in data set [2] (at as low as room temperature) is on record as “within a few weeks”. Also, the thermodynamic stability entry in data set [2] (listed as Modification C) is reported as “the least stable of the three modifications”. In data set [2] (depending on experimental conditions), the “conversion into other modifications” value is listed as “converted either into the modification A or A′ or into the modification B”.
